Patent publication US11345659B2, “Pipecolic esters for inhibition of the proteasome” (THE BOARD OF REGENTS OF THE UNIVERSY OF TEXAS SYSTEM, priority 2018, dated 2022)

Tests used:
[1] = system: Human multiple myeloma RPMI 8226 cells; assay: Proliferation of RPMI 8226 cells, live cell count by Trypan Blue exclusion; type: cell-based
Procedure: Human multiple myeloma RPMI 8226 cells were purchased from American Type Culture Collection (ATCC; Manassas, Va.) and cultured according to ATCC specifications. […] The content of live cells was determined by excluding the Trypan Blue-stained cells. The cells were counted with TC20 Automated Cell Counter (Bio-Rad Laboratories, Hercules, Calif.) and EC50 was calculated with Origin Pro 2017 (OriginLab Corporation, Northampton, Mass.). When indicated, the cells were harvested, washed twice in PBS, resuspended in dilution buffer and stored in −80° C. To prepare crude lysates the thawed preparations were vortexed with glass beads and centrifuged for 5 min 5,000×g (4° C.). The supernate was centrifuged for 20 min 14,000×g. The resulting supernate was used as “crude lysate.” SDS-PAGE was carried in 12% acrylamide, Tris-glycine gels from Invitrogen. Chameleon Duo (Li-Cor) and Rainbow RPN800E (GE Healthcare) molecular weight standards were separated on each gel alongside lysates. The proteins were transferred to nitrocellulose membrane in a semi-dry system. The membranes were probed with specific primary antibodies from Life Technologies (S6, PS6) and Li-Cor (COX IV), and then with secondary antibodies from Li-Cor. In each experiment visualization of S6, PS6 and COX IV was performed on the same membrane with Odyssey Infrared Imaging System (Li-Cor).
The effects of compound 3 observed in vitro prompted its influence on the proliferation of cultured cancer cells to be tested, namely the multiple myeloma RPMI 8226 line. […] Such relatively low EC50, as compared to in vitro determined IC50 values for peptidase activities (2-3 μM; FIG. 3A and FIG. 3B) should come to no surprise. […] The in vitro readout of single peptidase activities is a useful and convenient measure of the catalytic prowess of proteasome. However, especially in the case of allosteric regulators, it may not fully reflect the important structural and functional effects.
Referring to FIG. […] The data are averages (±SD) of three-to-five independent experiments. […]

[2] = target: T1, latent core 20 S proteasome (Homo sapiens, UniProt P25787+P25789); assay: ChT-L peptidase activity of latent 20 S core; type: biochemical; conditions: no tRpt5 activation
T1 construct: purified from erythrocytes; purchased Enzo Life Sciences, Inc. (Farmingdale, N.Y.); host or cells: human erythrocytes
Procedure: Human housekeeping 20 S and 26 S and complexes purified from erythrocytes were purchased from Enzo Life Sciences, Inc. (Farmingdale, N.Y.). The 1 mg/ml stock 20 S proteasome was diluted to 0.2 mg/ml working solution in 50 mM Tris/HCl, pH 8 containing 20% glycerol (dilution buffer). For the 26 S proteasome stock, the dilution buffer was supplemented with 2 mM ATP, 1 mM MgCl2, and 1 mM DTT (dithiothreitol). The ChT-L peptidase activity was measured as arbitrary intensity units of fluorescence emitted by 7-amino-4-methylcoumarin (AMC) released from the canonical model peptide substrate succinyl-LeuLeuValTyr-methylcoumarin (SucLLVY-MCA; Bachem Bioscience Inc., Philadelphia, Pa.), used at concentration of 100 μM. Free AMC (Sigma-Aldrich, St. Louis, Mo.) was used as the standard. The Rpt5 C-terminal peptide was synthesized (standard solid-phase peptide chemistry) and purified to at least 98% purity by GenScript (Piscataway, N.J.). […]
The reaction was carried out in 96-well plates, in 100 μL of reaction mixture, for 1 hour at 37° C. […] The reaction rates were calculated from a linear segment of kinetic curves constructed from measurements in 1-minutes intervals (Fluoroskan Ascent plate reader; Thermo Fisher Scientific Inc., Waltham, Mass.). Reaction rates were calculated using a linear fit executed by Slope Analyzer and Enzyme Kinetics applications launched within Origin Pro 2017 (OriginLab). […]

Molecule `COc1cc(CCCOC(=O)[C@@H]2CCCCN2C(=O)OCc2ccccc2)cc(OC)c1OC` [Compound 3, 1-benzyl 2-(3-(3,4,5-trimethoxyphenyl)propyl) (S)-piperidine-1,2-dicarboxylate] has an activity at 0.2 µM ([1]; RPMI 8226, 0.2 μM, 24 hours, read-out: cell proliferation, % of control) of 60 to 65%, an EC50 ([1]; RPMI 8226, 48 hours, read-out: EC50, content of live cells) of 550 nM and an IC50 [2] of 2800 nM.
